Molecules are shown by their SMILES. Where a SMILES comes first, the peptide text is derived from it.

For test [1], the system named is Plutella xylostella. As to the kind of experiment: Leaf dip assay 1 (based on IRAC susceptibility test method 018, performed by FERA). The format is in vivo. As to conditions: unformulated peptide at 2x10^-4 M; Chinese cabbage leaf discs dipped 10 seconds; larvae (2nd/3rd instar); mortality assessed after 120 hours; Figure 4. As to the method: The assay was carried out based on IRAC susceptibility test method 018 by a contract research organization, FERA Science Ltd. Test insects Larvae (2nd/3rd instar) were sourced from a laboratory culture of P. xylostella. The culture has been maintained in a controlled environment (CE) room with conditions of 25 °C and 16:8 lighting regime on Chinese cabbage plants. Chinese cabbage leaves were used in the bioassays. A CE room set at 25 °C and 60% r.h. with a 16 hour light: 8 hours dark lighting regime, was used. Leaf discs (approximately 35mm in diameter) were cut from fully expanded Chinese cabbage leaves. Each leaf disc was dipped in a separate peptide solution for 10 seconds with gentle agitation and placed on a damp filter paper (underside surface uppermost). There were ten replicates for each treatment and control, with five leaf discs per replicate. The treated discs were then put onto damp filter paper in the base of a Petri dishes (90 mm in diameter, 15 mm high) (underside surface uppermost). Five larvae were then transferred onto the treated leaf discs. The dishes were placed in the CE room and mortality was assessed after 120 hours. Leaf dip assays were performed with SB-P-81, and compared to a negative control vehicle and a current commercial insecticide Gazelle SG (shown as the active Acetamiprid). […]

The subject of test [2] is Plutella xylostella. As to the kind of experiment: Leaf dip assay 2 (based on IRAC susceptibility test method 019). It is filed as in vivo. Conditions: unformulated peptide at 1x10^-4 M; leaf disc on 1% agar; after 96 hours; Figure 6. The procedure:
The assay was carried out based on IRAC susceptibility test method 019 (https://irac-online.org/methods/aphids-adultnymphs/). Fill a small 4 cm wide 3 cm high dish with a 1% agar treatment solution of the active chemical or control (ensuring 1 cm gap between the agar and the lid) and leave to set. Dip a 2.5 cm leaf disc into 3 ml of treatment solution allowing the treatment to coat the leaf. Leave the disc to dry for 1 hour and place onto the set agar. Place insects (Plutella xylostella) onto each of the leaf discs. Each unit is sealed with a close-fitting, ventilated lid. Place the agar dishes in a small plastic tray lined with moist tissue paper and ensure the water trays in the bottom of the incubator are filled with clean water and place within the incubator. An assessment of mortality is made at 72, 96 and 120 hours. Leaf dip assays were performed with SB-P-81, and compared to a negative control vehicle and a current commercial insecticide Chlorantraniliprole. The activity of SB-P-81 is shown in Figure 6; SB-P-81 has good activity whilst being eco-friendly and targeted to specific pests unlike broad spectrum chemical insecticides such as Chlorantraniliprole.

For `CSCC[C@H](NC(=O)[C@H](CO)NC(=O)CNC(=O)CN)C(=O)N[C@H](C(=O)N[C@@H](Cc1ccccc1)C(=O)N[C@@H](CO)C(=O)N1CCC[C@H]1C(=O)N[C@@H](CCCNC(=N)N)C(=O)N[C@@H](CC(C)C)C(N)=O)[C@@H](C)O` [SB-P-81, [Hy]-GGSMTFSPRL-[NH2]] (H-GGSMTFSPRL-NH2), the “activity against Plutella xylostella (mortality)” value in the test with Plutella xylostella [1] and in the test on Plutella xylostella [2] was “good activity” throughout.
